Measured values reported in PubChem BioAssay (NCI).
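A five-concentration, 48-hour dose response in 96-well plates underlies each endpoint, interpolated linearly between surrounding concentrations. Here, GI50 denotes the concentration required for 50% inhibition of growth. Definition used: TGI = concentration required for complete inhibition of growth.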

Legend:
Assay in all cases: inhibition of tumour cell growth, NCI panel, 48 h; in the data active = GI50 below about 0.43 µM; inactive = the rest
[1] = test system: 786-0 renal
[2] = test system: A498 renal
[3] = test system: A549 NSCLC
[4] = test system: ACHN renal
[5] = test system: BT-549 breast
[6] = test system: CAKI-1 renal
[7] = test system: CCRF-CEM leukemia
[8] = test system: COLO 205 colon
[9] = test system: DU-145 prostate
[10] = test system: EKVX NSCLC
[11] = test system: HCC-2998 colon
[12] = test system: HCT-116 colon
[13] = test system: HCT-15 colon
[14] = test system: HL-60(TB) leukemia
[15] = test system: HOP-62 NSCLC
[16] = test system: HOP-92 NSCLC
[17] = test system: HS 578T breast
[18] = test system: HT29 colon
[19] = test system: IGROV1 ovarian
[20] = test system: K-562 leukemia
[21] = test system: KM12 colon
[22] = test system: LOX IMVI melanoma
[23] = test system: MCF7 breast
[24] = test system: MDA-MB-231 breast
[25] = test system: MDA-MB-435
[26] = test system: MOLT-4 leukemia
[27] = test system: NCI-H226 lung
[28] = test system: NCI-H460 lung
[29] = test system: NCI-H522 lung
[30] = test system: NCI/ADR-RES ovarian
[31] = test system: OVCAR-3 ovarian
[32] = test system: OVCAR-4 ovarian
[33] = test system: OVCAR-5 ovarian
[34] = test system: OVCAR-8 ovarian
[35] = test system: PC-3 prostate
[36] = test system: RPMI-8226 leukemia
[37] = test system: RXF 393 renal
[38] = test system: SF-268 CNS
[39] = test system: SF-295 CNS
[40] = test system: SF-539 CNS
[41] = test system: SK-MEL-2 melanoma
[42] = test system: SK-MEL-28 melanoma
[43] = test system: SK-MEL-5 melanoma
[44] = test system: SK-OV-3 ovarian
[45] = test system: SN12C renal
[46] = test system: SNB-19 CNS
[47] = test system: SNB-75 CNS
[48] = test system: SR leukemia
[49] = test system: SW-620 colon
[50] = test system: T-47D breast
[51] = test system: TK-10 renal
[52] = test system: U251 CNS
[53] = test system: UACC-257 melanoma
[54] = test system: UACC-62 melanoma
[55] = test system: UO-31 renal
[56] = test system: M14 melanoma
[57] = test system: MALME-3M melanoma
[58] = test system: NCI-H23 lung

CN1C(=O)N(c2ccccc2)C2N=C(N/N=C/c3ccccc3)SC21 (stereo unspecified)
5160 nM: TGI [8]
13700 nM: TGI [5]
67500 nM: TGI [43]
inactive: GI50 [1] 4210 nM | GI50 [2] > 100000 nM | GI50 [3] 2480 nM | GI50 [4] 5190 nM | GI50 [5] 885 nM | GI50 [6] 685 nM | GI50 [7] 1930 nM | GI50 [8] 1520 nM | GI50 [9] 3610 nM | GI50 [10] 3730 nM | GI50 [11] 2250 nM | GI50 [12] 710 nM | GI50 [13] 553 nM | GI50 [14] 452 nM | GI50 [15] 2500 nM | GI50 [16] 648 nM | GI50 [17] 1700 nM | GI50 [18] 935 nM | GI50 [19] 3860 nM | GI50 [20] 447 nM | GI50 [21] 819 nM | GI50 [22] 931 nM | GI50 [23] 456 nM | GI50 [24] 3620 nM | GI50 [26] 2380 nM | GI50 [27] 2280 nM | GI50 [28] 1040 nM | GI50 [30] 1050 nM | GI50 [31] 556 nM | GI50 [32] 14500 nM | GI50 [33] 4220 nM | GI50 [34] 3560 nM | GI50 [35] 1590 nM | GI50 [36] 3240 nM | GI50 [37] 873 nM | GI50 [38] 5490 nM | GI50 [39] 622 nM | GI50 [40] 1340 nM | GI50 [41] 1100 nM | GI50 [42] 16800 nM | GI50 [43] 6050 nM | GI50 [44] 2820 nM | GI50 [45] 4460 nM | GI50 [46] 3770 nM | GI50 [49] 659 nM | GI50 [50] 2930 nM | GI50 [51] > 100000 nM | GI50 [52] 1830 nM | GI50 [53] 28700 nM | GI50 [54] 577 nM | GI50 [55] 3180 nM
> 100000 nM: TGI [1] | TGI [2] | TGI [3] | TGI [4] | TGI [6] | TGI [7] | TGI [9] | TGI [10] | TGI [12] | TGI [13] | TGI [15] | TGI [16] | TGI [17] | TGI [19] | TGI [20] | TGI [21] | TGI [22] | TGI [23] | TGI [26] | TGI [30] | TGI [31] | TGI [32] | TGI [33] | TGI [34] | TGI [35] | TGI [36] | TGI [38] | TGI [39] | TGI [41] | TGI [42] | TGI [44] | TGI [45] | TGI [46] | TGI [48] | TGI [49] | TGI [50] | TGI [51] | TGI [52] | TGI [53] | TGI [54] | TGI [55]
508 nM: TGI [25]
7910 nM: TGI [40]
19900 nM: TGI [28]
3160 nM: TGI [37]
8040 nM: TGI [18]
7700 nM: TGI [47]
6580 nM: TGI [14]
82600 nM: TGI [24]
active: GI50 [25] 203 nM | GI50 [29] 304 nM | GI50 [47] 363 nM | GI50 [48] 380 nM
1580 nM: TGI [29]
66600 nM: TGI [27]
53200 nM: TGI [11]

CN(C)CCNc1ccc2ncc(C#Cc3cncc(C(=O)Nc4ccc(CN5CCN(C)CC5)c(C(F)(F)F)c4)c3)n2n1
2420 nM: TGI [20]
12000 nM: TGI [42]
1950 nM: TGI [5] | TGI [18]
5170 nM: TGI [7]
7230 nM: TGI [39]
7870 nM: TGI [54]
2840 nM: TGI [34]
5540 nM: TGI [10]
1030 nM: TGI [23]
4360 nM: TGI [51]
47700 nM: TGI [30]
2950 nM: TGI [31]
1180 nM: TGI [28]
2770 nM: TGI [45]
2390 nM: TGI [32]
1500 nM: TGI [12]
862 nM: TGI [40]
1830 nM: TGI [58]
541 nM: TGI [8]
3470 nM: TGI [35]
1850 nM: TGI [16]
918 nM: TGI [21]
6000 nM: TGI [13]
9930 nM: TGI [44]
2650 nM: TGI [11]
1200 nM: TGI [22]
6580 nM: TGI [4]
2130 nM: TGI [15]
5380 nM: TGI [33]
2460 nM: TGI [1]
3420 nM: TGI [26]
982 nM: TGI [47]
9350 nM: TGI [50]
1890 nM: TGI [52]
1410 nM: TGI [37]
3050 nM: TGI [27] | TGI [41]
1900 nM: TGI [24]
4180 nM: TGI [9]
5460 nM: TGI [3]
2900 nM: TGI [36]
9700 nM: TGI [2]
3430 nM: TGI [56]
2240 nM: TGI [49]
1810 nM: TGI [14]
1440 nM: TGI [29]
12500 nM: TGI [43]
3980 nM: TGI [19]
11100 nM: TGI [53]
4510 nM: TGI [25]
3660 nM: TGI [6]
active: GI50 [7] 28.4 nM | GI50 [8] 169 nM | GI50 [12] 247 nM | GI50 [16] 181 nM | GI50 [20] 130 nM | GI50 [21] 76.5 nM | GI50 [23] 154 nM | GI50 [26] 226 nM | GI50 [28] 406 nM | GI50 [40] 205 nM | GI50 [47] 185 nM | GI50 [48] 60.1 nM
1920 nM: TGI [17]
1620 nM: TGI [57] | TGI [48]
8040 nM: TGI [55]
inactive: GI50 [1] 1040 nM | GI50 [2] 3100 nM | GI50 [3] 936 nM | GI50 [4] 1770 nM | GI50 [5] 987 nM | GI50 [6] 713 nM | GI50 [9] 1000 nM | GI50 [10] 1530 nM | GI50 [11] 953 nM | GI50 [13] 1570 nM | GI50 [14] 612 nM | GI50 [15] 564 nM | GI50 [17] 450 nM | GI50 [18] 477 nM | GI50 [19] 955 nM | GI50 [22] 548 nM | GI50 [56] 1010 nM | GI50 [57] 672 nM | GI50 [24] 463 nM | GI50 [25] 746 nM | GI50 [27] 483 nM | GI50 [58] 764 nM | GI50 [29] 652 nM | GI50 [30] 9960 nM | GI50 [31] 844 nM | GI50 [32] 743 nM | GI50 [33] 1330 nM | GI50 [34] 672 nM | GI50 [35] 664 nM | GI50 [36] 1150 nM | GI50 [37] 683 nM | GI50 [38] 644 nM | GI50 [39] 1150 nM | GI50 [41] 1110 nM | GI50 [42] 5740 nM | GI50 [43] 6000 nM | GI50 [44] 2690 nM | GI50 [45] 774 nM | GI50 [46] 950 nM | GI50 [49] 589 nM | GI50 [50] 1810 nM | GI50 [51] 1470 nM | GI50 [52] 734 nM | GI50 [53] 4290 nM | GI50 [54] 1770 nM | GI50 [55] 1870 nM
4010 nM: TGI [46]
1470 nM: TGI [38]
